Active and inactive are the calls of the source. No cut-off for these calls is given here.
Legend:
RAW264.7 [1] = experiment: Cytotoxicity against mouse RAW264.7 cells assessed as reduction in cell viability at 8.8 to 70 uM incubated for 24 hrs by MTS assay; type: toxicity, cell-based; settings: raw264.7, 24 h, dose 8.8-70 µM
RAW264.7 [2] = experiment: Antiinflammatory activity against LPS-stimulated mouse RAW264.7 cells assessed as inhibition of NO production incubated for 2 hrs followed by LPS stimulation for 20 hrs by Griess reagent based assay; type: functional, cell-based
RAW264.7 [3] = experiment: Antiinflammatory activity against LPS-stimulated mouse RAW264.7 cells assessed as inhibition of NO production at 8.8 to 70 uM prestimulated with LPS and 2 hrs later incubated with compound by Griess reagent based assay; type: functional, cell-based; settings: dose 8.8-70 µM
RAW264.7 [4] = experiment: Antiinflammatory activity against LPS-stimulated mouse RAW264.7 cells assessed as inhibition of TNF-alpha production at 70 uM incubated for 2 hrs followed by LPS stimulation for 20 hrs by ELISA relative to control; type: functional; settings: time 22 hrs
RAW264.7 [5] = experiment: Antiinflammatory activity against LPS-stimulated mouse RAW264.7 cells assessed as inhibition of IL-6 production at 70 uM incubated for 2 hrs followed by LPS stimulation for 20 hrs by ELISA relative to control; type: functional; settings: time 22 hrs
RAW-Blue [6] = experiment: Inhibition of NF-kappaB activation in LPS-stimulated mouse RAW-Blue cells at 70 uM preincubated for 2 hrs followed by LPS stimulation and measured after 20 hrs by QUANTI-Blue assay; type: cell-based; settings: time 22.0 hrs
Mus musculus = experiment: Anti-inflammatory activity against TPA-induced auricular edema CD-1 mouse model assessed as inhibition of ear edema at 1 mg per ear applied immediately after TPA application and measured after 4 hrs relative to control; type: functional
[7] = biological target: T1, COX-1 (Prostaglandin G/H synthase 1) (Ovis aries, UniProt P05979); experiment: Inhibition of ovine COX-1 at 17.5 uM using arachidonic acid as substrate by colorimetric analysis; type: single protein; settings: sheep, ovine COX-1 enzyme, probe arachidonic acid
T1 sequence (P05979 whole entry): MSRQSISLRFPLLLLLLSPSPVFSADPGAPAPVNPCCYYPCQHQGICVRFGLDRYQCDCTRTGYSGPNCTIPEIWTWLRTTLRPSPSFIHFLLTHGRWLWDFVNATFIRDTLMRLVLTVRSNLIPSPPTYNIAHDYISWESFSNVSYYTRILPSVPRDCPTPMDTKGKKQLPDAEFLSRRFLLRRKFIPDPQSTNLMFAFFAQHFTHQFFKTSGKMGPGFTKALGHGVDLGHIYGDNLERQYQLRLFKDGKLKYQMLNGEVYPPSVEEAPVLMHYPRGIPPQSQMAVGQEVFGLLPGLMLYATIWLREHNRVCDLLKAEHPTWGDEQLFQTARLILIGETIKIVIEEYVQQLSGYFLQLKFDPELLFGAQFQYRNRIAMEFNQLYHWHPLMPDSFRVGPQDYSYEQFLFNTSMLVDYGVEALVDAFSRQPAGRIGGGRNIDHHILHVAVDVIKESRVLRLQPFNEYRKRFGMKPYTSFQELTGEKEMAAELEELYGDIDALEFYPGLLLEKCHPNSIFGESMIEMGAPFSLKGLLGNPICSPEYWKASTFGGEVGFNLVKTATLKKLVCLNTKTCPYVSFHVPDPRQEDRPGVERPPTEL

RAW264.7 [8] = experiment: Antiinflammatory activity against LPS-stimulated mouse RAW264.7 cells assessed as inhibition of IL-6 production at 17.5 to 70 uM prestimulated with LPS and 2 hrs later incubated with compound by […] assay; type: functional, cell-based; settings: dose 17.5-70 µM
RAW264.7 [9] = experiment: Antiinflammatory activity against LPS-stimulated mouse RAW264.7 cells assessed as inhibition of TNF-alpha production at 17.5 to 70 uM prestimulated with LPS and 2 hrs later incubated with compound by […] assay; type: functional, cell-based; settings: dose 17.5-70 µM
[10] = biological target: T2, Prostaglandin G/H synthase 2 (Homo sapiens) (UniProt P35354); experiment: Inhibition of human COX-2 at 17.5 uM using arachidonic acid as substrate by colorimetric analysis
T2 sequence (whole entry): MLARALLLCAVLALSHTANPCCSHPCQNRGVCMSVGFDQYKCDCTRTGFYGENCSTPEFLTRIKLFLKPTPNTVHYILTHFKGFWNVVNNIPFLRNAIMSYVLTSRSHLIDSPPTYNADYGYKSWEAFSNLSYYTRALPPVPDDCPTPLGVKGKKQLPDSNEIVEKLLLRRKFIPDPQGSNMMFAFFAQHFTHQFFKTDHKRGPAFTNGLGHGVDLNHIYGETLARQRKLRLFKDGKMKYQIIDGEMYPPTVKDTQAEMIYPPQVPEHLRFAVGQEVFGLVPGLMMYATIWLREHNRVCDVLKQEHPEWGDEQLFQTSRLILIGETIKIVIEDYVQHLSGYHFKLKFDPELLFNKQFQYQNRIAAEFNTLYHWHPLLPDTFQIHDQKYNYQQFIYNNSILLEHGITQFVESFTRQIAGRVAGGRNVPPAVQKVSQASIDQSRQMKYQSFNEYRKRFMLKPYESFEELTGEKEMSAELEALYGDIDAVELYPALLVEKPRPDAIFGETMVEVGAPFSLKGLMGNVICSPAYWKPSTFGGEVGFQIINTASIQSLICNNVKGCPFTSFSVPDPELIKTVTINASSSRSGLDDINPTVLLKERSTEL

RAW264.7 [11] = experiment: Antiinflammatory activity against LPS-stimulated mouse RAW264.7 cells assessed as inhibition of IL-6 production incubated for 2 hrs followed by LPS stimulation for 20 hrs by ELISA; type: functional, cell-based
RAW264.7 [12] = experiment: Antiinflammatory activity against LPS-stimulated mouse RAW264.7 cells assessed as inhibition of TNF-alpha production at 84 uM incubated for 2 hrs followed by LPS stimulation for 20 hrs by ELISA relative to control; type: functional; settings: time 22 hrs
RAW264.7 [13] = experiment: Antiinflammatory activity against LPS-stimulated mouse RAW264.7 cells assessed as inhibition of IL-6 production at 84 uM incubated for 2 hrs followed by LPS stimulation for 20 hrs by ELISA relative to control; type: functional; settings: time 22 hrs
[14] = Cytotoxicity against mouse RAW264.7 cells assessed as cell viability at 70 uM incubated for 24 hrs by MTS assay relative to control; type: toxicity, cell-based; settings: read-out: Activity
RAW264.7 [15] = experiment: Antiinflammatory activity against LPS-stimulated mouse RAW264.7 cells assessed as inhibition of TNF-alpha production at 35 uM incubated for 2 hrs followed by LPS stimulation for 20 hrs by ELISA relative to control; type: functional; settings: time 22 hrs
RAW-Blue [16] = experiment: Inhibition of NF-kappaB activation in LPS-stimulated mouse RAW-Blue cells at 35 uM preincubated for 2 hrs followed by LPS stimulation and measured after 20 hrs by QUANTI-Blue assay; type: cell-based; settings: time 22.0 hrs
RAW264.7 [17] = experiment: Antiinflammatory activity against LPS-stimulated mouse RAW264.7 cells assessed as inhibition of NO production at 4.4 to 35 uM prestimulated with LPS and 2 hrs later incubated with compound by Griess reagent based assay; type: functional, cell-based; settings: dose 4.4-35 µM
RAW264.7 [18] = experiment: Antiinflammatory activity against LPS-stimulated mouse RAW264.7 cells assessed as inhibition of IL-6 production at 8.8 to 35 uM prestimulated with LPS and 2 hrs later incubated with compound by […] assay; type: functional, cell-based; settings: dose 8.8-35 µM
RAW264.7 [19] = experiment: Antiinflammatory activity against LPS-stimulated mouse RAW264.7 cells assessed as inhibition of TNF-alpha production at 8.8 to 35 uM prestimulated with LPS and 2 hrs later incubated with compound by […] assay; type: functional, cell-based; settings: dose 8.8-35 µM
[20] = Cytotoxicity against mouse RAW264.7 cells assessed as cell viability at 35 uM incubated for 24 hrs by MTS assay relative to control; type: toxicity, cell-based; settings: read-out: Activity
RAW-Blue [21] = experiment: Inhibition of NF-kappaB activation in LPS-stimulated mouse RAW-Blue cells at 17.5 uM preincubated for 2 hrs followed by LPS stimulation and measured after 20 hrs by QUANTI-Blue assay; type: cell-based; settings: time 22.0 hrs

| Structure (SMILES) | Activity (RAW264.7 [1]) | IC50 (RAW264.7 [2]) | Activity (RAW264.7 [3]) | inhibition at 70 µM (RAW264.7 [4]) | inhibition (RAW-Blue [6]) | inhibition (INH) (Mus musculus) | inhibition at 17.5 µM [7] | Activity (RAW264.7 [8]) | Activity (RAW264.7 [9]) | inhibition [10] | viability at 24 h, 70 µM [14] | other results |
| --- | --- | --- | --- | --- | --- | --- | --- | --- | --- | --- | --- | --- |
| C=C(C)[C@@H]1CC[C@]2(C)[C@H](CC=C3[C@@H]4[C@@H](C)[C@H](C)CC[C@]4(C)CC[C@]32C)[C@@]1(C)CCCN1C[C@H](O)C[C@H]1C(=O)OC | Non-Toxic | 42.9 µM | Active | 70% | 96.2% | 25.2% | 37.3% | Active | Active | 61.8% | – | inhibition at 70 µM (RAW264.7 [5]): 89.1% |
| C=C(C)[C@@H]1CC[C@]2(C)CC[C@]3(C)[C@H](CC[C@@H]4[C@@](C)(CCCO)[C@H](C(=C)C)CC[C@]43C)[C@@H]12 | Non-Toxic | 54.4 µM | Active | 49.8% | 63.4% | 17.3% | 14.8% | Active | Active | 26% | – | IC50 (RAW264.7 [11]): 38 µM |
| COc1ccc2c(c1)c(CC(=O)O)c(C)n2C(=O)c1ccc(Cl)cc1 [INDOMETHACIN] | – | 40.7 µM | – | – | – | 91.4% | – | – | – | – | – | inhibition at 84 µM (RAW264.7 [12]): 54.6%; inhibition at 84 µM (RAW264.7 [13]): 44.2% |
| C=C(C)[C@@H]1CC[C@]2(C)CC[C@]3(C)[C@H](CC[C@@H]4[C@@](C)(CCCN5C[C@H](O)C[C@H]5C(=O)OC)[C@H](C(=C)C)CC[C@]43C)[C@@H]12 | – | 23.2 µM | Active | – | – | 36.4% | 7.2% | – | – | – | 64.2% | inhibition at 35 µM (RAW264.7 [15]): 55.7%; IC50 (RAW264.7 [11]): 11.1 µM; inhibition (RAW-Blue [16]): 87.4%; Activity (RAW264.7 [17]): Active; Activity (RAW264.7 [18]): Active; Activity (RAW264.7 [19]): Active |
| C=C(C)[C@@H]1CC[C@]2(C)CC[C@]3(C)[C@H](CC[C@@H]4[C@@]5(C)CC[C@@H](O)C(C)(C)[C@@H]5CC[C@]43C)[C@H]12 | – | – | – | – | – | 66.4% | – | – | – | – | – | – |
| C=C(C)[C@@H]1CC[C@]2(C)CC[C@]3(C)[C@H](CC[C@@H]4[C@@](C)(CCCN5CCOCC5)[C@H](C(=C)C)CC[C@]43C)[C@@H]12 | Non-Toxic | – | – | – | – | 11.1% | – | – | – | 49.2% | – | – |
| C=C(C)[C@@H]1CC[C@]2(C)[C@H](CC=C3[C@@H]4[C@@H](C)[C@H](C)CC[C@]4(C)CC[C@]32C)[C@@]1(C)CCCO | Non-Toxic | 58.9 µM | Active | 68.5% | 22% | 9.5% | – | Active | Active | 66.3% | – | inhibition at 70 µM (RAW264.7 [5]): 40.2% |
| C[C@H]1[C@H](C)CC[C@]2(C(=O)O)CC[C@]3(C)C(=CC[C@@H]4[C@@]5(C)CC[C@H](O)C(C)(C)[C@@H]5CC[C@]43C)[C@H]12 [URSOLIC ACID] | – | 13.8 µM | – | – | – | 34.2% | 23.6% | – | – | – | 13.9% | viability at 24 h, 35 µM [20]: 30%; inhibition (RAW-Blue [21]): 52.2% |
| C=C(C)[C@@H]1CC[C@]2(C)[C@H](CC=C3[C@@H]4[C@@H](C)[C@H](C)CC[C@]4(C)CC[C@]32C)[C@@]1(C)CCCN1CCOCC1 | – | – | – | – | – | 12.2% | 12.2% | – | – | 74.4% | 73.8% | – |
| C=C(C)[C@@H]1CC[C@]2(C)[C@H](CC=C3[C@@H]4[C@@H](C)[C@H](C)CC[C@]4(C)CC[C@]32C)[C@@]1(C)CCCNCC(=O)OC | Non-Toxic | – | – | – | – | 40.1% | 33.3% | – | – | 61.8% | – | – |

Reference: ChEMBL document CHEMBL5120759, “Synthesis, Biological Evaluation, and Molecular Docking Study of 3-Amino and 3-Hydroxy-seco A Derivatives of α-Amyrin and 3-Epilupeol as Inhibitors of COX-2 Activity and NF-kB Activation” (J Nat Prod, 2022)
